This passage reports Activity and inhibition results from ChEMBL document CHEMBL5653634, “The effect of the PKC inhibitor GF109203X on the release of Ca2+ from internal stores and Ca2+ entry in DDT1 MF-2 cells” (1996).

Assay [1] is described as follows: Inhibition of PKC in golden hamster DDT1-MF2 cells by measuring calcium 2+ uptake at 10 uM preincubated for 45 mins followed by extracellular calcium 2+ addition measured after 5 mins by liquid scintillation counting analysis (reference value: 100 +/- 6 %). Further details: species or system Mesocricetus auratus; scale not given: the % may be the effect or the level left. The conditions noted are these: time 50 min.

Assay [2] can be described thus: Inhibition of PKC in golden hamster DDT1-MF2 cells by measuring basal cytoplasmic calcium concentration at 5 uM incubated for 45 mins in presence of extracellular calcium 2+. The note with it: 0.75 h. Further details: species or system Mesocricetus auratus.
Assay [3] concerns DDT1-MF2. The assay is described as follows: Inhibition of PKC in golden hamster DDT1-MF2 cells assessed as increase in inositol 1,4,5-trisphosphate formation at 5 uM incubated for 45 mins by liquid scintillation counting analysis. In kind it is cell-based. The conditions noted are these: Mesocricetus auratus.
Assay [4] can be described thus: Inhibition of PKC in golden hamster DDT1-MF2 cells assessed as inhibition of histamine-induced calcium response by measuring maximal cytoplasmic calcium concentration at 5 uM preincubated for 45 mins in presence of extracellular calcium 2+ followed by histamine stimulation. Further details: species or system Mesocricetus auratus. The note with it: 0.75 h.

A short description of assay [5]: Inhibition of PKC in golden hamster DDT1-MF2 cells assessed as inhibition of histamine-induced calcium response by measuring cytoplasmic calcium concentration at 5 uM preincubated for 45 mins in presence of extracellular calcium 2+ followed by histamine stimulation measured after 5 mins. Further details: species or system Mesocricetus auratus. The conditions noted are these: time 50 min.

Assay [6] can be described thus: Inhibition of PKC in golden hamster DDT1-MF2 cells by measuring basal cytoplasmic calcium concentration at 5 uM incubated for 45 mins in absence of extracellular calcium 2+. The arrangement: species or system Mesocricetus auratus. The note with it: 0.75 h.
A short description of assay [7]: Inhibition of PKC in golden hamster DDT1-MF2 cells assessed as inhibition of histamine-induced calcium response by measuring cytoplasmic calcium concentration at 5 uM preincubated for 45 mins in absence of extracellular calcium 2+ followed by histamine stimulation. Further details: species or system Mesocricetus auratus. The note with it: 0.75 h.

Assay [8] deals with DDT1-MF2. As to the kind of experiment: Inhibition of PKC in golden hamster DDT1-MF2 cells assessed as decrease in histamine-induced inositol 1,4,5-trisphosphate formation at 5 uM incubated for 45 mins followed by histamine stimulation by liquid scintillation counting analysis. In kind it is cell-based. The conditions noted are these: Mesocricetus auratus.
Assay [9] relates to DDT1-MF2. The assay is described as follows: Inhibition of PKC in golden hamster DDT1-MF2 cells assessed as decrease in histamine-induced inositol 1,4,5-trisphosphate formation at 5 uM incubated for 45 mins in presence of PMA followed by histamine stimulation by liquid scintillation counting analysis. In kind it is cell-based. The conditions noted are these: Mesocricetus auratus.

Assay [10] is described as follows: Inhibition of PKC in golden hamster DDT1-MF2 cells by measuring cytoplasmic calcium concentration at 5 uM incubated for 10 mins. The arrangement: species or system Mesocricetus auratus. The conditions noted are these: […].
Assay [11] is described as follows: Inhibition of PKC in golden hamster DDT1-MF2 cells by measuring cytoplasmic calcium concentration at 5 uM incubated for 10 mins in presence of LaCl3. Further details: species or system Mesocricetus auratus. The conditions noted are these: […].
Assay [12] can be described thus: Inhibition of PKC in golden hamster DDT1-MF2 cells assessed as decrease in histamine-induced calcium release by measuring cytoplasmic calcium concentration at 5 uM incubated for 45 mins in presence of LaCl3. The arrangement: species or system Mesocricetus auratus. The note with it: 0.75 h.
Assay [13] has as its system DDT1-MF2. As to the kind of experiment: Inhibition of PKC in golden hamster DDT1-MF2 cells assessed as decrease in histamine-induced calcium release by measuring cytoplasmic calcium concentration incubated for 45 mins followed by histamine and LaCl3 addition. Type of assay: cell-based. The conditions noted are these: Mesocricetus auratus.
For assay [14], the system named is DDT1-MF2. The assay is described as follows: Inhibition of PKC in golden hamster DDT1-MF2 cells assessed as decrease in thapsigargin-induced calcium release by measuring cytoplasmic calcium concentration at 5 uM incubated for 45 mins followed by thapsigargin and LaCl3 addition. Type of assay: cell-based. The conditions noted are these: Mesocricetus auratus.
A short description of assay [15]: Inhibition of PKC in golden hamster DDT1-MF2 cells assessed as decrease in thapsigargin-induced calcium release by measuring cytoplasmic calcium concentration at 5 uM incubated for 45 mins followed by thapsigargin and LaCl3 addition measured after 5 mins. The arrangement: species or system Mesocricetus auratus. The conditions noted are these: time 50 min.

Assay [16] in a line: Inhibition of PKC in golden hamster DDT1-MF2 cells assessed as decrease in thapsigargin-induced calcium release by measuring cytoplasmic calcium concentration at 5 uM incubated for 45 mins followed by thapsigargin, PMA and LaCl3 addition measured after 48 hrs. Further details: species or system Mesocricetus auratus. The conditions noted are these: time 2925 min, 48.75 h.

Assay [17] is described as follows: Inhibition of PKC in golden hamster DDT1-MF2 cells assessed as decrease in Ins(1,4,5)P3-induced calcium 2+ efflux at 5 uM incubated for 14 mins by liquid scintillation counting analysis relative to control. The note with it: Mesocricetus auratus, DDT1-MF2, 14 min.
Assay [18] is described as follows: Inhibition of PKC in golden hamster DDT1-MF2 cells assessed as decrease in calcium 2+ efflux at 5 uM incubated for 10 mins by liquid scintillation counting analysis relative to control. The conditions noted are these: Mesocricetus auratus, DDT1-MF2, 10 min.
A short description of assay [19]: Inhibition of PKC in golden hamster DDT1-MF2 cells by measuring calcium 2+ uptake at 5 uM preincubated for 45 mins followed by extracellular calcium 2+ addition measured after 5 mins by liquid scintillation counting analysis (reference value: 100 +/- 6 %). Further details: species or system Mesocricetus auratus; scale not given: the % may be the effect or the level left. The note with it: time 50 min.

The nature of assay [20]: Inhibition of PKC in golden hamster DDT1-MF2 cells by measuring calcium 2+ uptake at 5 uM preincubated for 45 mins followed by extracellular calcium 2+ and histamine addition measured after 5 mins by liquid scintillation counting analysis (reference value: 100 +/- 6 %). The arrangement: species or system Mesocricetus auratus; scale not given: the % may be the effect or the level left. The note with it: time 50 min.

Assay [21] is described as follows: Inhibition of PKC in golden hamster DDT1-MF2 cells by measuring calcium 2+ uptake at 5 uM preincubated for 45 mins followed by extracellular calcium 2+ and thapsigargin addition measured after 5 mins by liquid scintillation counting analysis (reference value: 100 +/- 6 %). The conditions noted are these: time 50 min. The arrangement: species or system Mesocricetus auratus; scale not given: the % may be the effect or the level left.

Assay [22] is described as follows: Inhibition of PKC in golden hamster DDT1-MF2 cells assessed as decrease in thapsigargin-induced calcium release by measuring basal cytoplasmic calcium concentration at 5 uM incubated for 45 mins followed by thapsigargin and LaCl3 addition measured after 5 mins. Further details: species or system Mesocricetus auratus. The note with it: time 50 min.

A short description of assay [23]: Inhibition of PKC in golden hamster DDT1-MF2 cells by measuring basal cytoplasmic calcium concentration at 0.5 uM incubated for 5 mins in presence of extracellular calcium 2+. The arrangement: species or system Mesocricetus auratus. The conditions noted are these: […].
The nature of assay [24]: Inhibition of PKC in golden hamster DDT1-MF2 cells assessed as inhibition of histamine-induced calcium response by measuring maximal cytoplasmic calcium concentration at 0.5 uM preincubated for 5 mins in presence of extracellular calcium 2+ followed by histamine stimulation. Further details: species or system Mesocricetus auratus. The conditions noted are these: […].

A short description of assay [25]: Inhibition of PKC in golden hamster DDT1-MF2 cells assessed as inhibition of histamine-induced calcium response by measuring maximal cytoplasmic calcium concentration at 0.5 uM preincubated for 5 mins in presence of extracellular calcium 2+ followed by histamine stimulation measured after 5 mins. Further details: species or system Mesocricetus auratus. The note with it: time 10 min.

A short description of assay [26]: Inhibition of PKC in golden hamster DDT1-MF2 cells by measuring basal cytoplasmic calcium concentration at 0.5 uM incubated for 5 mins in absence of extracellular calcium 2+. The arrangement: species or system Mesocricetus auratus. The note with it: […].
The nature of assay [27]: Inhibition of PKC in golden hamster DDT1-MF2 cells assessed as inhibition of histamine-induced calcium response by measuring cytoplasmic calcium concentration at 0.5 uM preincubated for 5 mins in absence of extracellular calcium 2+ followed by histamine stimulation. The conditions noted are these: […]. The arrangement: species or system Mesocricetus auratus.

The subject of assay [28] is DDT1-MF2. The assay is described as follows: Inhibition of PKC in golden hamster DDT1-MF2 cells assessed as decrease in histamine-induced inositol 1,4,5-trisphosphate formation at 1 uM incubated for 5 mins followed by histamine stimulation by liquid scintillation counting analysis. In kind it is cell-based. The conditions noted are these: Mesocricetus auratus.
A short description of assay [29]: Inhibition of PKC in golden hamster DDT1-MF2 cells assessed as decrease in histamine-induced inositol 1,4,5-trisphosphate formation by measuring inositol 1,4,5-trisphosphate level measured per 10^6 cells at 1 uM incubated for 48 hrs followed by histamine addition. The arrangement: species or system Mesocricetus auratus. The conditions noted are these: […].

Assay [30] is described as follows: Inhibition of PKC in golden hamster DDT1-MF2 cells by measuring inositol 1,4,5-trisphosphate level measured per 10^6 cells at 1 uM incubated for 48 hrs. The conditions noted are these: […]. Further details: species or system Mesocricetus auratus.
A short description of assay [31]: Inhibition of PKC in golden hamster DDT1-MF2 cells by measuring calcium 2+ uptake at 1 uM preincubated for 45 mins followed by extracellular calcium 2+ addition measured after 5 mins by liquid scintillation counting analysis (reference value: 100 +/- 6 %). The arrangement: species or system Mesocricetus auratus; scale not given: the % may be the effect or the level left. The conditions noted are these: time 50 min.

The structures appear in SMILES notation. Active and inactive are the calls of the source. No cut-off for these calls is given here.

Take `Cn1cc(C2=C(c3cn(CCCSC(=N)N)c4ccccc34)C(=O)NC2=O)c2ccccc21` [BISINDOLYLMALEIMIDE IX]: in assay [1], the Activity stood at 135%.
For `CN(C)CCCn1cc(C2=C(c3c[nH]c4ccccc34)C(=O)NC2=O)c2ccccc21` [GF-109203], the Activity in assay [2] was 102 nM; in assay [4] it was 63 nM; in assay [5] it was 42 nM; in assay [6], 82 nM; in [7], 40 nM; in assay [10], 9 nM. Moreover, the Activity is reported as 7 nM in assay [11]; 38 nM in [12]; 68 nM in assay [15]; 73 nM in assay [16]; 167% in assay [19]; 155% in assay [20]. Further, the values for the Activity in [21] and in [22] were 238% and 105 nM, respectively. The inhibition result in the assay with DDT1-MF2 [3] and with DDT1-MF2 [14] was “Active” throughout. The inhibition result in the assay on DDT1-MF2 [8] and in the assay with DDT1-MF2 [9] was “inactive” throughout. Further, in the assay on DDT1-MF2 [13], the inhibition entry was “Dose-Dependent Effect”. The inhibition at 5 µM came out at 58% in assay [17] and 93% in assay [18].
Turning to `CCCCCCCCCCCCCC(=O)O[C@@H]1[C@@H](C)[C@@]2(O)[C@@H](C=C(CO)C[C@]3(O)C(=O)C(C)=C[C@@H]23)[C@@H]2C(C)(C)[C@]12OC(C)=O` [PHORBOL MYRISTATE ACETATE], the Activity in assay [23] came to 129 nM; in assay [24], 50 nM; in assay [25], 0 nM; in assay [26], 80 nM; in [27] it was 53 nM; in assay [29], 11.5 pmol. For the same molecule, the Activity in assay [30] is on record as 11.6 pmol. The inhibition result with DDT1-MF2 [28] was “Active”.
On to `C/C=C(/C)C(=O)O[C@H]1C(C)=C2[C@H]([C@@H]1OC(=O)CCCCCCC)[C@@](C)(OC(C)=O)C[C@H](OC(=O)CCC)[C@@]1(O)[C@H]2OC(=O)[C@@]1(C)O` [THAPSIGARGIN], for which the Activity in [31] is given as 221%.

One may read the inhibition as how much of the control response was suppressed.
